Measurements as given in US8148373B2, “Compounds” (AstraZeneca AB, priority 2008, dated 2012).
Counter-ions that a name gives are not always drawn.

Experiments:
[1] = target: T1, human muscarinic acetylcholine M3 receptor (M3-ACh) (Homo sapiens, UniProt P20309); experiment: Muscarinic 3 Receptor Binding Assay ([3H]NMS competition, SPA); settings: [3H]NMS 0.1 nM, CHO-K1 cell membranes, 16 hours at room temperature; read-out: M3 pIC50 (converted)
T1 construct: expressed in transfected cells; host or cells: CHO-K1 (Chinese Hamster Ovary) cell membranes
T1 sequence (P20309 whole entry): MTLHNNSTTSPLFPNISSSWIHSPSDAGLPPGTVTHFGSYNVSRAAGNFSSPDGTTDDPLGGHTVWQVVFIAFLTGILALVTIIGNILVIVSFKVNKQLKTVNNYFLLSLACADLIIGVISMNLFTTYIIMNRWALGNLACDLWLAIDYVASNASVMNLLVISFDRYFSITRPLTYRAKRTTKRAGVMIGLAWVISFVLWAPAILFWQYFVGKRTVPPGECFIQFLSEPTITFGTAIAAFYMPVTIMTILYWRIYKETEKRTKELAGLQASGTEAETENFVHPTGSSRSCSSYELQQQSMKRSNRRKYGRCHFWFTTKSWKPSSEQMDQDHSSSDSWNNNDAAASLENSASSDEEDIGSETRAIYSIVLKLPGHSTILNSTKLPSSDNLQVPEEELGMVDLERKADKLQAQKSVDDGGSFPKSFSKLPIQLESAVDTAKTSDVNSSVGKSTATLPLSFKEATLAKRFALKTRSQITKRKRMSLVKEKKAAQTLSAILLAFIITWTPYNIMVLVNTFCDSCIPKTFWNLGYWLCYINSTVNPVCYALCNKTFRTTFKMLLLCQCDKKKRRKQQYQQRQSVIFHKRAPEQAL
How it was run: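 Competition SPA binding of 0.1 nM [3H]NMS (quarter Kd) to membranes from CHO-K1 cells expressing human M3, in 20 mM HEPES pH 7.4, 5 mM MgCl2, 1% DMSO. Incubated 16 h at room temperature; non-specific binding with 1 µM atropine. pIC50 from 50% reduction of specific binding.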

[2] = target: T2, Adrenergic β2 (H292 cells) (Homo sapiens, UniProt P07550); experiment: Assay for Adrenergic β2 Mediated cAMP Production (concentration response, AlphaScreen cAMP detection); format: cell-based; settings: for EC50: cAMP production, 60 minutes at room temperature, 300 μM rolipram, read-out: β2 pEC50 (converted); for β2 Intrinsic activity: fraction relative to the maximum activity determined for formoterol
T2 construct: endogenous in cells; host or cells: H292 cells
T2 sequence (P07550 whole entry): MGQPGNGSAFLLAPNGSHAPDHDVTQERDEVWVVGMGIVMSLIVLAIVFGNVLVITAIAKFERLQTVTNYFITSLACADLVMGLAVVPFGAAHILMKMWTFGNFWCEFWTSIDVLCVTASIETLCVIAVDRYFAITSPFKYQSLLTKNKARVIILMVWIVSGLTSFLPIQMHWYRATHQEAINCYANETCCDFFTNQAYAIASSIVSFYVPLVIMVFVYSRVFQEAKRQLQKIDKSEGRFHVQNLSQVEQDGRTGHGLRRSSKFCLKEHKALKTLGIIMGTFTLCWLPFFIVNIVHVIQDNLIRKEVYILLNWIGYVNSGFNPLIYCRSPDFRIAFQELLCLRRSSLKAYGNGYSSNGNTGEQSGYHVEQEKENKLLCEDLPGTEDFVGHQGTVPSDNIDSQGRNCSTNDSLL
How it was run: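 H292 cells plated overnight, pre-treated with rolipram (300 μM final) 10 min, then compound 60 min at room temperature in HBSS/10 mM HEPES pH7.4/5 mM glucose, 1% DMSO. Lysate cAMP read by AlphaScreen against a cAMP standard curve; 4-parameter fit gives pEC50 and intrinsic activity as fraction of formoterol maximum.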

Row | Structure (SMILES) | IC50 [1] | EC50 [2] | β2 Intrinsic activity [2]
1 | CC(C)c1nc(C(=O)N2CCOC3(CCN(Cc4ccc(F)c(CCNC[C@H](O)c5ccc(O)c6[nH]c(=O)ccc56)c4F)CC3)C2)cs1 [Example 46, (R)-5-(2-(2,6-Difluoro-3-((4-(2-isopropylthiazole-4-carbonyl)-1-oxa-4,9-diazaspiro[5.5]undecan-9-yl)methyl)phenethylamino)-1-hydroxyethyl)-8-hydroxyquinolin-2(1H)-one ditrifluoroacetate] | 6.31 nM | 79.4 nM | 1
2 | Cc1ccc(C(=O)N2CCOC3(CCN(Cc4cc(CCNC[C@H](O)c5ccc(O)c6[nH]c(=O)sc56)cs4)CC3)C2)s1 [Example 27, (R)-4-Hydroxy-7-(1-hydroxy-2-(2-(5-((4-(5-methylthiophene-2-carbonyl)-1-oxa-4,9-diazaspiro[5.5]undecan-9-yl)methyl)thiophen-3-yl)ethylamino)ethyl)benzo[d]thiazol-2(3H)-one ditrifluoroacetate] | 2.51 nM | 1.26 nM | 1
3 | CC(C)c1nc(C(=O)N2CCOC3(CCN(Cc4ccc(F)c(CCNC[C@H](O)c5ccc(O)c6[nH]c(=O)sc56)c4F)CC3)C2)cs1 [Example 45, (R)-7-(2-(2,6-Difluoro-3-((4-(2-isopropylthiazole-4-carbonyl)-1-oxa-4,9-diazaspiro[5.5]undecan-9-yl)methyl)phenethylamino)-1-hydroxyethyl)-4-hydroxybenzo[d]thiazol-2(3H)-one ditrifluoroacetate] | 5.01 nM | 10 nM | 0.8
4 | CC(C)c1nc(C(=O)N2CCOC3(CCN(Cc4cc(CCNC[C@H](O)c5ccc(O)c6[nH]c(=O)sc56)cs4)CC3)C2)cs1 [Example 36, (R)-4-Hydroxy-7-(1-hydroxy-2-(2-(5-((4-(2-isopropylthiazole-4-carbonyl)-1-oxa-4,9-diazaspiro[5.5]undecan-9-yl)methyl)thiophen-3-yl)ethylamino)ethyl)benzo[d]thiazol-2(3H)-one ditrifluoroacetate] | 0.501 nM | 6.31 nM | 1
5 | Cc1nc(C(=O)N2CCOC3(CCN(CCCCCCCCCNC[C@H](O)c4ccc(O)c5[nH]c(=O)sc45)CC3)C2)cs1 [Example 2, (R)-4-Hydroxy-7-(1-hydroxy-2-(9-(4-(2-methylthiazole-4-carbonyl)-1-oxa-4,9-diazaspiro[5.5]undecan-9-yl)nonylamino)ethyl)benzo[d]thiazol-2(3H)-one ditrifluoroacetate] | 0.316 nM | 12.6 nM | 0.8
6 | Cc1ccc(C(=O)N2CCOC3(CCN(Cc4cc(CCNC[C@H](O)c5ccc(O)c6[nH]c(=O)sc56)cc(F)c4F)CC3)C2)s1 [Example 32, (R)-7-(2-(3,4-Difluoro-5-((4-(5-methylthiophene-2-carbonyl)-1-oxa-4,9-diazaspiro[5.5]undecan-9-yl)methyl)phenethylamino)-1-hydroxyethyl)-4-hydroxybenzo[d]thiazol-2(3H)-one ditrifluoroacetate] | 39.8 nM | 3.16 nM | 1.1
7 | CC(C)c1nc(C(=O)N2CCOC3(CCN(Cc4cccc(CCNC[C@H](O)c5ccc(O)c6[nH]c(=O)sc56)c4)CC3)C2)cs1 [Example 22, (R)-4-Hydroxy-7-O-hydroxy-2-(3-((4-(2-isopropylthiazole-4-carbonyl)-1-oxa-4,9-diazaspiro[5.5]undecan-9-yl)methyl)phenethylamino)ethyl)benzo[d]thiazol-2(3H)-one ditrifluoroacetate] | 0.126 nM | 10 nM | 0.9
8 | O=C(c1csc(C2CCCC2)n1)N1CCOC2(CCN(Cc3cc(F)cc(CCNC[C@H](O)c4ccc(O)c5[nH]c(=O)sc45)c3)CC2)C1 [Example 59, (R)-7-(2-(3-((4-(2-Cyclopentylthiazole-4-carbonyl)-1-oxa-4,9-diazaspiro[5.5]undecan-9-yl)methyl)-5-fluorophenethylamino)-1-hydroxyethyl)-4-hydroxybenzo[d]thiazol-2(3H)-one ditrifluoroacetate] | 7.94 nM | 15.8 nM | 1
9 | Cc1nc(C(=O)N2CCOC3(CCN(Cc4ccc(CCNC[C@H](O)c5ccc(O)c6[nH]c(=O)sc56)cc4)CC3)C2)cs1 [Example 16, (R)-4-Hydroxy-7-(1-hydroxy-2-(4-((4-(2-methylthiazole-4-carbonyl)-1-oxa-4,9-diazaspiro[5.5]undecan-9-yl)methyl)phenethylamino)ethyl)benzo[d]thiazol-2(3H)-one ditrifluoroacetate] | 7.94 nM | 15.8 nM | 0.9

Results, then the compound that gave them:

Row | IC50 [1] | EC50 [2] | β2 Intrinsic activity [2] | Structure (SMILES)
10 | 251 nM | 251 nM | 0.9 | CC(C)c1nc(C(=O)N2CCOC3(CCN(Cc4cccc5c(CNC[C@H](O)c6ccc(O)c7[nH]c(=O)sc67)cccc45)CC3)C2)cs1 [Example 62, (R)-4-Hydroxy-7-(1-hydroxy-2-((5-((4-(2-isopropylthiazole-4-carbonyl)-1-oxa-4,9-diazaspiro[5.5]undecan-9-yl)methyl)naphthalen-1-yl)methylamino)ethyl)benzo[d]thiazol-2(3H)-one ditrifluoroacetate]
11 | 1.58 nM | 5.01 nM | 0.9 | CCc1cc(C(=O)N2CCOC3(CCN(Cc4cc(CCNC[C@H](O)c5ccc(O)c6[nH]c(=O)sc56)ccc4F)CC3)C2)cs1 [Example 100, (R)-7-(2-(3-((4-(5-Ethylthiophene-3-carbonyl)-1-oxa-4,9-diazaspiro[5.5]undecan-9-yl)methyl)-4-fluorophenethylamino)-1-hydroxyethyl)-4-hydroxybenzo[d]thiazol-2(3H)-one ditrifluoroacetate]
12 | 50.1 nM | 7.94 nM | 0.8 | CC(C)c1cccc(C(=O)N2CCOC3(CCN(Cc4cccc(CCNC[C@H](O)c5ccc(O)c6[nH]c(=O)sc56)c4F)CC3)C2)n1 [Example 85, (R)-7-(2-(2-Fluoro-3-((4-(6-isopropylpicolinoyl)-1-oxa-4,9-diazaspiro[5.5]undecan-9-yl)methyl)phenethylamino)-1-hydroxyethyl)-4-hydroxybenzo[d]thiazol-2(3H)-one ditrifluoroacetate]
13 | 200 nM | 100 nM | 0.8 | O=C(c1nc2ccccc2s1)N1CCOC2(CCN(CCOc3ccc(CNC[C@H](O)c4ccc(O)c5[nH]c(=O)sc45)cc3)CC2)C1 [Example 106, (R)-7-(2-(4-(2-(4-(Benzo[d]thiazole-2-carbonyl)-1-oxa-4,9-diazaspiro[5.5]undecan-9-yl)ethoxy)benzylamino)-1-hydroxyethyl)-4-hydroxybenzo[d]thiazol-2(3H)-one formate]
14 | 0.631 nM | 100 nM | 0.9 | CC(C)c1nc(C(=O)N2CCOC3(CCN(Cc4cccc(SCCNC[C@H](O)c5ccc(O)c6[nH]c(=O)sc56)c4)CC3)C2)cs1 [Example 65, (R)-4-Hydroxy-7-(1-hydroxy-2-(2-(3-((4-(2-isopropylthiazole-4-carbonyl)-1-oxa-4,9-diazaspiro[5.5]undecan-9-yl)methyl)phenylthio)ethylamino)ethyl)benzo[d]thiazol-2(3H)-one ditrifluoroacetate]
15 | 0.794 nM | 5.01 nM | 0.9 | CC(C)Cc1nc(C(=O)N2CCOC3(CCN(Cc4cccc(CCNC[C@H](O)c5ccc(O)c6[nH]c(=O)sc56)c4)CC3)C2)cs1 [Example 84, (R)-4-Hydroxy-7-(1-hydroxy-2-(3-((4-(2-isobutylthiazole-4-carbonyl)-1-oxa-4,9-diazaspiro[5.5]undecan-9-yl)methyl)phenethylamino)ethyl)benzo[d]thiazol-2(3H)-one ditrifluoroacetate]
16 | 79.4 nM | 398 nM | 0.5 | CC(C)c1nc(C(=O)N2CCOC3(CCN(Cc4ccc(C(F)(F)F)c(CCNC[C@H](O)c5ccc(O)c6[nH]c(=O)ccc56)c4)CC3)C2)cs1 [Example 273, (R)-8-Hydroxy-5-(1-hydroxy-2-(5-((4-(2-isopropylthiazole-4-carbonyl)-1-oxa-4,9-diazaspiro[5.5]undecan-9-yl)methyl)-2-(trifluoromethyl)phenethylamino)ethyl)quinolin-2(1H)-one ditrifluoroacetate]
17 | 79.4 nM | 200 nM | 0.9 | CC(C)c1nc(C(=O)N2CCOC3(CCN(Cc4cccc(C(C)(C)CNC[C@H](O)c5ccc(O)c6[nH]c(=O)sc56)c4F)CC3)C2)cs1 [Example 90, (R)-7-(2-(2-(2-Fluoro-3-((4-(2-isopropylthiazole-4-carbonyl)-1-oxa-4,9-diazaspiro[5.5]undecan-9-yl)methyl)phenyl)-2-methylpropylamino)-1-hydroxyethyl)-4-hydroxybenzo[d]thiazol-2(3H)-one ditrifluoroacetate]
18 | 1.58 nM | 31.6 nM | 0.8 | CC(C)c1nc(C(=O)N2CCOC3(CCN(CCCSCCCCNC[C@H](O)c4ccc(O)c5[nH]c(=O)sc45)CC3)C2)cs1 [Example 281, (R)-4-Hydroxy-7-(1-hydroxy-2-(4-(3-(4-(2-isopropylthiazole-4-carbonyl)-1-oxa-4,9-diazaspiro[5.5]undecan-9-yl)propylthio)butylamino)ethyl)benzo[d]thiazol-2(3H)-one formate]
